Measurements as given in patent EP4755888A1 (ILAb Co., Ltd., priority 2023, dated 2025).
Read-outs that look alike come from different tables or passages of the source.

What was measured:
PD-1/PD-L1 [1] = test: PD-1/PD-L1 blockade bioassay at the cellular level (PD-L1 aAPC/CHO-K1 cells + PD-1 Effector T cells, luciferase); type: cell-based; conditions: Homo sapiens, T-cell; PD-L1 aAPC/CHO-K1 cells with PD-1 Effector T cells, 6 hours, luminescence; read-out: PD-1/PD-L1 Inhibitory Activity EC50
Protocol: In order to evaluate the effect of the compounds of the present invention, synthesized according to the above Preparation Examples, on blocking signal transduction between PD-1/PD-L1-expressing cells, a PD-1/PD-L1 blockade bioassay was conducted as described below.
Specifically, PD-L1 aAPC/CHO-K1 cells engineered to express human PD-L1 were seeded into a 96-well white plate and cultured for one day. On the following day, the compounds were prepared in a 96-well plate by serial dilution at concentrations starting from 10 µM and 5 µM, followed by 1/4 dilutions to obtain a total of ten concentrations. The culture medium in the plate seeded with the PD-L1 aAPC/CHO-K1 cell line was removed, and 40 µL of each prepared compound solution was added to a 96-well plate. Thereafter, 40 µL of PD-1 Effector T cell line engineered to express human PD-1 was additionally added, and then cultured for 6 hours. After 6 hours, 80 µL of Bio-Glo luciferase buffer was added to each well, followed by incubation at room temperature for 10 minutes, and luminescence was measured using a microplate reader.

[2] = target: T1, PD-L1 expressed on the cell surface (MC38 hPD-L1) (Homo sapiens, UniProt Q9NZQ7); test: Internalization of cell surface PD-L1, flow cytometry with fluorescent staining; type: cell-based; conditions: MC38 hPD-L1 cells, 1 µM, 4 hours; untreated 90% to 99%
T1 construct: expressed in transfected cells; host or cells: MC38 mouse colon cancer cell line expressing human PD-L1
T1 sequence (Q9NZQ7 19-290): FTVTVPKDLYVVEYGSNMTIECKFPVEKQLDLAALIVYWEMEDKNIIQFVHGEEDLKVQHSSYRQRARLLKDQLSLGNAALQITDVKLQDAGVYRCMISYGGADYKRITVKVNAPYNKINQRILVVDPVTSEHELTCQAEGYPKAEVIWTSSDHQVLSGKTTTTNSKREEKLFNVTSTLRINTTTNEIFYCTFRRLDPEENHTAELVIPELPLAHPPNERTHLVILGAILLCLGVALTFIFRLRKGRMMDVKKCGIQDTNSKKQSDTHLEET
Protocol: In order to evaluate the internalization of cell surface PD-L1 induced by the compounds of the present invention synthesized according to the above Preparation Examples, a flow cytometry experiment using fluorescent staining was conducted as described below.
Specifically, a mouse colon cancer cell line expressing human PD-L1 (MC38 hPD-L1) was seeded into a 24-well plate at a density of 5 x 10^5 cells per well, followed by treatment with Compounds 206 to 227 at a concentration of 1 µM and incubation for 4 hours. After 4 hours, the compound-treated MC38 hPD-L1 cells were collected and stained with PE anti-hPD-L1 fluorecence at room temperature for 30 minutes. The rate of PD-L1 expression on the cell surface was then quantified using flow cytometry.

PD-1/PD-L1 [3] = target: PD-1/PD-L1 (Homo sapiens, UniProt Q9NZQ7); test: TR-FRET PD-1/PD-L1 binding inhibition at the molecular level (free proteins)
Chain of PD-1/PD-L1 (Homo sapiens, UniProt Q9NZQ7) (Q9NZQ7 19-238 limits assumed): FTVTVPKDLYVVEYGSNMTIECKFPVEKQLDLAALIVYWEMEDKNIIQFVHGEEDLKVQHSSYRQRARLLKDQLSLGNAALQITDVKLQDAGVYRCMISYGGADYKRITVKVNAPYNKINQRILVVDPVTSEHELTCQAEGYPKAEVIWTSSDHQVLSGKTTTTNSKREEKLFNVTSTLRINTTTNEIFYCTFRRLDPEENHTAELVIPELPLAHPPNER
In short: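 HTRF read-out at 665/620 nm after 2 h at room temperature. Detection used anti-Tag1 Eu cryptate plus anti-Tag2 XL665 antibodies. Tagged PD-L1 and PD-1 proteins were pre-mixed with compound across twelve […] 1:2 dilutions starting at 200 nM.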

hPD-L1 = hPD-L1 (Homo sapiens, UniProt Q9NZQ7); test: TR-FRET dimerization of hPD-L1 molecules; type: biochemical; conditions: for EC50: Fc tag-hPD-L1 and His tag-hPD-L1, twelve concentrations from 10 µM; for induction of dimerization of hPD-L1 molecules (in words): summary of Table 3
Chain of hPD-L1 (Q9NZQ7 19-238 limits assumed): as above
Chain of hPD-L1 (Q9NZQ7 19-238 limits assumed): as above
Protocol: In order to evaluate the dimerization of hPD-L1 molecules induced by the compounds of the present invention synthesized according to the above Preparation Examples, a TR-FRET (Time-Resolved Fluorescence Energy Transfer) experiment was performed as described below.
Specifically, the compounds were prepared in a 96-well plate by serial dilution starting from 10 µM with 1/3 dilutions to obtain a total of twelve concentrations. Thereafter, 2 µL of each compound solution was added to a 384-well plate. Fc tag-hPD-L1 protein and His tag-hPD-L1 protein were each prepared at a 1x concentration, mixed at a ratio of 1:1 of above two proteins, and 8 µL of the mixed protein solution was added to each well of the 384-well plate containing the compounds, followed by incubation at room temperature for one day. On the following day, Anti-6His-Tb Cryptate Gold antibody and Anti-human IgG-XL665 antibody were each prepared at a 1x concentration, mixed at a ratio of 1:1, and 10 µL of the mixed antibody solution was added to each well of the 384-well plate containing the compounds and proteins, followed by incubation at room temperature for 2 hours. Upon completion of the reaction, fluorescence signals at wavelengths of 620 nm and 665 nm were measured using a microplate reader.

[4] = Tag1-PD-L1 and Tag2-PD-1 proteins, twelve concentrations from 200 nM, 2 hours at room temperature, read-out: FRET assay (IC50)

In the case of Cc1c(NC(=O)c2ccc(CN3CC[C@@H](O)C3)cn2)cccc1-c1cccc(NC(=O)c2cc3n(n2)CCC[C@H]3N2CC[C@@H](O)C2)c1C [Compound 217], the EC50 (PD-1/PD-L1 [1]) is reported as 0.251 µM, the “Cell surface PD-L1 expression level (%)” value [2] is reported as 82.8% and the IC50 (PD-1/PD-L1 [3]; read-out: FRET assay (IC50), Tag1-PD-L1 and Tag2-PD-1 proteins, twelve concentrations from 200 nM, 2 hours at room temperature) is reported as under 0.01 µM.

In the case of O=C(O)CN[C@H]1CCCn2nc(C(=O)Nc3cccc(-c4cccc(NC(=O)c5ccc(CNCCO)cn5)c4Cl)c3Cl)cc21 [Compound 220, (S)-2-((2-((2,2'-dichloro-3'-(5-(((2-hydroxyethyl)amino)methyl)picolinamido)-[1,1'-biphenyl]-3-yl)carbamoyl)-4,5,6,7-tetrahydropyrazolo[1,5-a]pyridin-4-yl)amino)acetic acid], the EC50 (PD-1/PD-L1 [1]) is reported as 0.0136 µM, the “Cell surface PD-L1 expression level (%)” value [2] is reported as 0.6% and the IC50 (PD-1/PD-L1 [3]; [4]) is reported as under 0.01 µM.

In the case of O=C(Nc1cccc(-c2cccc(NC(=O)c3cc4n(n3)CCC[C@@H]4N3CC[C@@H](C(=O)O)C3)c2Cl)c1Cl)c1ccc(CNCCO)cn1 [Compound 208, (R)-1-((S)-2-((2,2'-dichloro-3'-(5-(((2-hydroxyethyl)amino)methyl)picolinamido)-[1,1'-biphenyl]-3-yl)carbamoyl)-4,5,6,7-tetrahydropyrazolo[1,5-a]pyridin-4-yl)pyrrolidine-3-carboxylic acid], the EC50 (PD-1/PD-L1 [1]) is reported as 0.0126 µM, the “Cell surface PD-L1 expression level (%)” value [2] is reported as 0.5% and the IC50 (PD-1/PD-L1 [3]; [4]) is reported as under 0.01 µM.

O=C(O)CN[C@H]1CCCn2nc(C(=O)Nc3cccc(-c4cccc(NC(=O)c5ccc(CN6CC[C@@H](O)C6)cn5)c4Cl)c3Cl)cc21 [Compound 222, 2-(((S)-2-((2,2'-dichloro-3'-(5-(((R)-3-hydroxypyrrolidin-1-yl)methyl)picolinamido)-[1,1'-biphenyl]-3-yl)carbamoyl)-4,5,6,7-tetrahydropyrazolo[1,5-a]pyridin-4-yl)amino)acetic acid] was tested, and the EC50 (PD-1/PD-L1 [1]) was 0.0348 µM, the “Cell surface PD-L1 expression level (%)” value [2] was 0.3% and the IC50 (PD-1/PD-L1 [3]; [4]) was under 0.01 µM.

In the case of O=C(Nc1cccc(-c2cccc(NC(=O)c3cc4n(n3)CCC[C@@H]4NCCO)c2Cl)c1Cl)c1ccc(CNCCO)cn1 [Compound 206, (S)-N-(2,2'-dichloro-3'-(5-(((2-hydroxyethyl)amino)methyl)picolinamido)-[1,1'-biphenyl]-3-yl)-4-((2-hydroxyethyl)amino)-4,5,6,7-tetrahydropyrazolo[1,5-a]pyridine-2-carboxamide], the EC50 (PD-1/PD-L1 [1]) is reported as 0.0157 µM, the “Cell surface PD-L1 expression level (%)” value [2] is reported as 0.9% and the IC50 (PD-1/PD-L1 [3]; [4]) is reported as under 0.01 µM.

For O=C(Nc1cccc(-c2cccc(Nc3nccc4cc(CN5CC[C@H](O)C5)cnc34)c2Cl)c1Cl)c1cc2n(n1)CCC[C@H]2N1CCC(C(=O)O)CC1 [Compound 227, 1-((R)-2-((2,2'-dichloro-3'-((3-(((S)-3-hydroxypyrrolidin-1-yl)methyl)-1,7-naphthyridin-8-yl)amino)-[1,1'-biphenyl]-3-yl)carbamoyl)-4,5,6,7-tetrahydropyrazolo[1,5-a]pyridin-4-yl)piperidine-4-carboxylic acid], the EC50 (PD-1/PD-L1 [1]) was 0.0202 µM, the EC50 (hPD-L1) was 0.0262 µM and the “induction of dimerization of hPD-L1 molecules (in words)” value (hPD-L1) was “effectively induced dimerization of hPD-L1 molecules at the nanomolar level”. For the same molecule, the “Cell surface PD-L1 expression level (%)” value [2] was 1.6% and the IC50 (PD-1/PD-L1 [3]; [4]) was 0.01 to 0.1 µM.

With Cc1c(NC(=O)c2cc3n(n2)CCC[C@@H]3N2CC[C@@H](C(=O)O)C2)cccc1-c1cccc(Nc2nc(C(F)F)nc3cc(CN4CC[C@@H](O)C4)cnc23)c1C [Compound 210, (R)-1-((S)-2-((3'-((2-(difluoromethyl)-7-(((R)-3-hydroxypyrrolidin-1-yl)methyl)pyrido[3,2-d]pyrimidin-4-yl)amino)-2,2'-dimethyl-[1,1'-biphenyl]-3-yl)carbamoyl)-4,5,6,7-tetrahydropyrazolo[1,5-a]pyridin-4-yl)pyrrolidine-3-carboxylic acid] the EC50 (PD-1/PD-L1 [1]) was 0.016 µM, the “Cell surface PD-L1 expression level (%)” value [2] was 3.2% and the IC50 (PD-1/PD-L1 [3]; [4]) was under 0.01 µM.

In the case of Cc1c(NC(=O)c2ccc(CN3CC[C@@H](O)C3)cn2)cccc1-c1cccc(NC(=O)c2cc3n(n2)CCC[C@@H]3NCCO)c1C [Compound 214, (S)-4-((2-hydroxyethyl)amino)-N-(3'-(5-(((R)-3-hydroxypyrrolidin-1-yl)methyl)picolinamido)-2,2'-dimethyl-[1,1'-biphenyl]-3-yl)-4,5,6,7-tetrahydropyrazolo[1,5-a]pyridine-2-carboxamide], the EC50 (PD-1/PD-L1 [1]) is reported as 0.0401 µM, the “Cell surface PD-L1 expression level (%)” value [2] is reported as 5.7% and the IC50 (PD-1/PD-L1 [3]; [4]) is reported as under 0.01 µM.

For Cc1c(NC(=O)c2cc3n(n2)CCC[C@@H]3NCC(=O)O)cccc1-c1cccc(Nc2nc(C(F)F)nc3cc(CN4CC[C@@H](O)C4)cnc23)c1C [Compound 212, 2-(((S)-2-((3'-((2-(difluoromethyl)-7-(((R)-3-hydroxypyrrolidin-1-yl)methyl)pyrido[3,2-d]pyrimidin-4-yl)amino)-2,2'-dimethyl-[1,1'-biphenyl]-3-yl)carbamoyl)-4,5,6,7-tetrahydropyrazolo[1,5-a]pyridin-4-yl)amino)acetic acid], the EC50 (PD-1/PD-L1 [1]) was 0.0323 µM, the “Cell surface PD-L1 expression level (%)” value [2] was 22.1% and the IC50 (PD-1/PD-L1 [3]; [4]) was under 0.01 µM.

In the case of O=C(Nc1cccc(-c2cccc(NC(=O)c3cc4n(n3)CCC[C@H]4NCCO)c2Cl)c1Cl)c1ccc(CNCCO)cn1 [Compound 207, (R)-N-(2,2'-dichloro-3'-(5-(((2-hydroxyethyl)amino)methyl)picolinamido)-[1,1'-biphenyl]-3-yl)-4-((2-hydroxyethyl)amino)-4,5,6,7-tetrahydropyrazolo[1,5-a]pyridine-2-carboxamide], the EC50 (PD-1/PD-L1 [1]) is reported as 0.0858 µM, the “Cell surface PD-L1 expression level (%)” value [2] is reported as 77.5% and the IC50 (PD-1/PD-L1 [3]; [4]) is reported as under 0.01 µM.

With Cc1c(NC(=O)c2ccc(CN3CC[C@@H](O)C3)cn2)cccc1-c1cccc(NC(=O)c2cc3n(n2)CCC[C@@H]3N2CC[C@@H](O)C2)c1C [Compound 216, (S)-4-((R)-3-hydroxypyrrolidin-1-yl)-N-(3'-(5-(((R)-3-hydroxypyrrolidin-1-yl)methyl)picolinamido)-2,2'-dimethyl-[1,1'-biphenyl]-3-yl)-4,5,6,7-tetrahydropyrazolo[1,5-a]pyridine-2-carboxamide] the EC50 (PD-1/PD-L1 [1]) was 0.0316 µM, the EC50 (hPD-L1) was 0.0252 µM and the “induction of dimerization of hPD-L1 molecules (in words)” value (hPD-L1) was “effectively induced dimerization of hPD-L1 molecules at the nanomolar level”. For the same molecule, the “Cell surface PD-L1 expression level (%)” value [2] was 3.0% and the IC50 (PD-1/PD-L1 [3]; [4]) was under 0.01 µM.

With Cc1c(NC(=O)c2cc3n(n2)CCC[C@H]3NCC(=O)O)cccc1-c1cccc(Nc2nc(C(F)F)nc3cc(CN4CC[C@@H](O)C4)cnc23)c1C [Compound 213, 2-(((R)-2-((3'-((2-(difluoromethyl)-7-(((R)-3-hydroxypyrrolidin-1-yl)methyl)pyrido[3,2-d]pyrimidin-4-yl)amino)-2,2'-dimethyl-[1,1'-biphenyl]-3-yl)carbamoyl)-4,5,6,7-tetrahydropyrazolo[1,5-a]pyridin-4-yl)amino)acetic acid] the “Cell surface PD-L1 expression level (%)” value [2] was 73.9% and the IC50 (PD-1/PD-L1 [3]; [4]) was under 0.01 µM.

For O=C1CC[C@@H](CN[C@@H]2CCCn3nc(C(=O)Nc4cccc(-c5cccc(NC(=O)c6ccc(CNCCO)cn6)c5Cl)c4Cl)cc32)N1 [Compound 225, (R)-N-(2,2'-dichloro-3'-(5-(((2-hydroxyethyl)amino)methyl)picolinamido)-[1,1'-biphenyl]-3-yl)-4-((((S)-5-oxopyrrolidin-2-yl)methyl)amino)-4,5,6,7-tetrahydropyrazolo[1,5-a]pyridine-2-carboxamide], the “Cell surface PD-L1 expression level (%)” value [2] was 1.6% and the IC50 (PD-1/PD-L1 [3]; [4]) was 0.01 to 0.1 µM.
